Assay results: ChEMBL document CHEMBL1125544, “Novel thiosemicarbazones derived from formyl- and acyldiazines: synthesis, effects on cell proliferation, and synergism with antiviral agents” (1992)
In brackets after ≈: the same amount, converted by molar mass.

Columns and labels:
Conditions in all cases: Homo sapiens
MT4 [1] = assay: Inhibition of proliferation of MT-4 cells.
HuT78 [2] = assay: Inhibition of proliferation of HUT78 cells.
MT4 [3] = assay: Compound was evaluated for inhibition of proliferation of MT-4 cells (in vitro)
HuT78 [4] = assay: Compound was evaluated for inhibition of proliferation of HUT78 cells (in vitro)
MT4 [5] = assay: Compound was evaluated for inhibition of proliferation of MT-4 cells(in vitro)

| Structure (SMILES) | IC50 (MT4 [1]) | IC50 (HuT78 [2]) | IC50 (MT4 [3]) | IC50 (HuT78 [4]) | IC50 (MT4 [5]) |
| --- | --- | --- | --- | --- | --- |
| C/C(=N\N=C(\N)S)c1cnccn1 | 0.95 µg/mL (≈ 4.87 µM) | 1.39 µg/mL (≈ 7.12 µM) |  |  |  |
| CC/C(=N\N=C(/S)N1CCCCCC1)c1cccnn1 | 0.039 µg/mL (≈ 0.134 µM) | 0.073 µg/mL (≈ 0.25 µM) |  |  |  |
| CC/C(=N\N=C(/S)N1CCCC1)c1cccnn1 | 0.016 µg/mL (≈ 0.0608 µM) | 0.052 µg/mL (≈ 0.197 µM) |  |  |  |
| C/C(=N\N=C(/S)N(C)C)c1ccc(C)nn1 | 0.12 µg/mL (≈ 0.506 µM) | 0.088 µg/mL (≈ 0.371 µM) |  |  |  |
| C/N=C(\S)N/N=C(\C)c1ccncn1 | 0.02 µg/mL (≈ 0.0956 µM) | 0.022 µg/mL (≈ 0.105 µM) |  |  |  |
| C=CCN/C(S)=N/N=C(\C)c1cccnn1 | 1.28 µg/mL (≈ 5.44 µM) | 2.65 µg/mL (≈ 11.3 µM) |  |  |  |
| C/C(=N\N=C(\N)S)c1ccncn1 | 0.14 µg/mL (≈ 0.717 µM) | 0.82 µg/mL (≈ 4.2 µM) |  |  |  |
| C/N=C(\S)N/N=C(\C)c1ccc(C)nn1 | 1.52 µg/mL (≈ 6.81 µM) | 2.15 µg/mL (≈ 9.63 µM) |  |  |  |
| C/C(=N\N=C(\N)S)c1ccc(C)nn1 | 1.49 µg/mL (≈ 7.12 µM) | 1.58 µg/mL (≈ 7.55 µM) |  |  |  |
| N/C(S)=N/N=C/c1cccnn1 | 2.18 µg/mL (≈ 12 µM) | 4.21 µg/mL (≈ 23.2 µM) |  |  |  |
| C/C(=N\N=C(/S)N1CCCC1)c1ccncn1 | 0.00026 µg/mL (≈ 0.00104 µM) | 0.00031 µg/mL (≈ 0.00124 µM) |  |  |  |
| C/C(=N\N=C(/S)N1CCCCCC1)c1ccncn1 | 0.016 µg/mL (≈ 0.0577 µM) | 0.0022 µg/mL (≈ 0.00793 µM) |  |  |  |
| CN(C)/C(S)=N/N=C/c1cccnn1 | 0.11 µg/mL (≈ 0.526 µM) | 0.11 µg/mL (≈ 0.526 µM) |  |  |  |
| C/N=C(\S)N/N=C/c1cccnn1 | 2.42 µg/mL (≈ 12.4 µM) | 4.52 µg/mL (≈ 23.1 µM) |  |  |  |
| C/N=C(\S)N/N=C(\C)c1cccnn1 | 1.62 µg/mL (≈ 7.74 µM) | 1.86 µg/mL (≈ 8.89 µM) |  |  |  |
| C/N=C(\S)N/N=C(\C)c1cnccn1 | 0.46 µg/mL (≈ 2.2 µM) | 0.88 µg/mL (≈ 4.2 µM) |  |  |  |
| C/C(=N\N=C(/S)N(C)C)c1ccncn1 | 0.00049 µg/mL (≈ 0.00219 µM) | 0.00065 µg/mL (≈ 0.00291 µM) |  |  |  |
| C/C(=N\N=C(/S)NCc1ccccn1)c1cccnn1 | 0.87 µg/mL (≈ 3.04 µM) | 2.01 µg/mL (≈ 7.02 µM) |  |  |  |
| C=CCNC(=S)N/N=C/c1cccnn1 | 3.1 µg/mL (≈ 14 µM) | 6.22 µg/mL (≈ 28.1 µM) |  |  |  |
| CC(N/N=C(\S)N1CCCC1)c1cccnn1 (stereo not drawn) | 0.016 µg/mL (≈ 0.0637 µM) | 0.068 µg/mL (≈ 0.271 µM) |  |  |  |
| C/C(=N\N=C(/S)NCc1ccccn1)c1ccc(C)nn1 | 1.64 µg/mL (≈ 5.46 µM) | 2.82 µg/mL (≈ 9.39 µM) |  |  |  |
| C/C(=N\NC(=S)N(C)C)c1cnccn1 | 0.00045 µg/mL (≈ 0.00202 µM) | 0.00062 µg/mL (≈ 0.00278 µM) |  |  |  |
| C/C(=N\NC(=S)N1CCCC1)c1cnccn1 | 0.00019 µg/mL (≈ 0.000762 µM) | 0.00049 µg/mL (≈ 0.00197 µM) |  |  |  |
| C/C(=N\NC(=S)N(C)C)c1ccccn1 |  |  | 0.00011 µg/mL (≈ 0.000495 µM) | 0.00055 µg/mL (≈ 0.00247 µM) |  |
| CC/C(=N\N=C(/S)N1CCCCC1)c1cccnn1 | 0.03 µg/mL (≈ 0.108 µM) | 0.071 µg/mL (≈ 0.256 µM) |  |  |  |

| Structure (SMILES) | IC50 (MT4 [1]) | IC50 (HuT78 [2]) | IC50 (MT4 [3]) | IC50 (HuT78 [4]) | IC50 (MT4 [5]) |
| --- | --- | --- | --- | --- | --- |
| C/C(=N\N=C(/S)N1CCCCCC1)c1cnccn1 | 0.0059 µg/mL (≈ 0.0213 µM) | 0.0083 µg/mL (≈ 0.0299 µM) |  |  |  |
| C/C(=N\N=C(/S)N1CCCCC1)c1ccncn1 | 0.0013 µg/mL (≈ 0.00494 µM) | 0.0037 µg/mL (≈ 0.014 µM) |  |  |  |
| CC(N/N=C(\S)N1CCCCCC1)c1cccnn1 (stereo not drawn) | 0.028 µg/mL (≈ 0.1 µM) | 0.04 µg/mL (≈ 0.143 µM) |  |  |  |
| C/C(=N\N=C(\N)S)c1cccnn1 | 1.13 µg/mL (≈ 5.79 µM) | 0.99 µg/mL (≈ 5.07 µM) |  |  |  |
| C/C(=N\N=C(/S)N1CCCC1)c1ccc(C)nn1 | 0.036 µg/mL (≈ 0.137 µM) | 0.073 µg/mL (≈ 0.277 µM) |  |  |  |
| CCC/C(=N\N=C(/S)N1CCCC1)c1cccnn1 | 0.036 µg/mL (≈ 0.13 µM) | 0.068 µg/mL (≈ 0.245 µM) |  |  |  |
| CC(N/N=C(\S)N1CC2CCC(CC2)C1)c1cccnn1 (stereo not drawn) | 0.034 µg/mL (≈ 0.111 µM) | 0.038 µg/mL (≈ 0.124 µM) |  |  |  |
| CCC/C(=N\N=C(/S)N1CCCCC1)c1cccnn1 | 0.0012 µg/mL (≈ 0.00412 µM) | 0.0023 µg/mL (≈ 0.00789 µM) |  |  |  |
| C=CCN/C(S)=N/N=C(\C)c1ccncn1 | 0.081 µg/mL (≈ 0.344 µM) | 0.031 µg/mL (≈ 0.132 µM) |  |  |  |
| C/C(=N\N=C(/S)NCc1ccccn1)c1ccncn1 | 0.018 µg/mL (≈ 0.0629 µM) | 0.24 µg/mL (≈ 0.838 µM) |  |  |  |
| C/C(=N\N=C(/S)NCc1ccccn1)c1cnccn1 | 0.041 µg/mL (≈ 0.143 µM) | 1.11 µg/mL (≈ 3.88 µM) |  |  |  |
| C/C(=N\N=C(/S)N(C)C)c1cccnn1 | 0.1 µg/mL (≈ 0.448 µM) | 0.079 µg/mL (≈ 0.354 µM) |  |  |  |
| CCC/C(=N\N=C(/S)N1CC2CCC(CC2)C1)c1cccnn1 | 0.084 µg/mL (≈ 0.253 µM) | 0.062 µg/mL (≈ 0.187 µM) |  |  |  |
| C=CCN/C(S)=N/N=C(\C)c1ccc(C)nn1 | 1.47 µg/mL (≈ 5.9 µM) | 2.81 µg/mL (≈ 11.3 µM) |  |  |  |
| C/C(=N\N=C(/S)N1CCCCCC1)c1ccc(C)nn1 | 0.028 µg/mL (≈ 0.0961 µM) | 0.054 µg/mL (≈ 0.185 µM) |  |  |  |
| C=CCN/C(S)=N/N=C(\C)c1cnccn1 | 0.014 µg/mL (≈ 0.0595 µM) | 0.036 µg/mL (≈ 0.153 µM) |  |  |  |
| C/C(=N\NC(=S)N1CCCCC1)c1cnccn1 | 0.00055 µg/mL (≈ 0.00209 µM) | 0.00052 µg/mL (≈ 0.00197 µM) |  |  |  |
| S=C(NCc1ccccn1)N/N=C/c1cccnn1 | 3.9 µg/mL (≈ 14.3 µM) | 5.62 µg/mL (≈ 20.6 µM) |  |  |  |
| C/C(=N\NC(N)=S)c1ccccn1 |  |  |  | 0.35 µg/mL (≈ 1.8 µM) | 0.049 µg/mL (≈ 0.252 µM) |
| CCC/C(=N\N=C(/S)N1CCCCCC1)c1cccnn1 | 0.088 µg/mL (≈ 0.288 µM) | 0.098 µg/mL (≈ 0.321 µM) |  |  |  |
| CC(N/N=C(\S)N1CCCCC1)c1cccnn1 (stereo not drawn) | 0.033 µg/mL (≈ 0.124 µM) | 0.074 µg/mL (≈ 0.279 µM) |  |  |  |
| C/C(=N\N=C(/S)N1CCCCC1)c1ccc(C)nn1 | 0.019 µg/mL (≈ 0.0685 µM) | 0.055 µg/mL (≈ 0.198 µM) |  |  |  |
| C/C(=N\N=C(/S)N1CC2CCC(CC2)C1)c1ccncn1 | 0.047 µg/mL (≈ 0.155 µM) | 0.036 µg/mL (≈ 0.119 µM) |  |  |  |
| C/C(=N\N=C(/S)N1CC2CCC(CC2)C1)c1cnccn1 | 0.0054 µg/mL (≈ 0.0178 µM) | 0.0069 µg/mL (≈ 0.0227 µM) |  |  |  |
